In brackets after ≈: the same amount, converted by molar mass. Like-named read-outs stand apart in the source and are kept apart here.
Experiments:
[1] = tested on: PC3 cell line, an AR insensitive cell line; assay: cell viability assay (Cell-titer blue), PC3; type: cell-based; conditions: Homo sapiens, PC-3, read-out: PC3 CTB IC50
Method: (§1) All compounds were evaluated in a reporter gene assay (22Rv1 cell line lentiviral transduced with CMV-firefly luciferase) to monitor transcriptional effects and two cell viability assays (Cell-titer blue; PC3 cell line, an AR insensitive cell line, and LNCaP cell line, an AR sensitive cell line). The compounds were also monitored for aggregation.

[2] = tested on: LNCaP cell line, an AR sensitive cell line; assay: cell viability assay (Cell-titer blue), LNCaP; type: cell-based; conditions: Homo sapiens, read-out: LNCaP CTB IC50
Method: as §1

[3] = tested on: 22Rv1 cell line lentiviral transduced with CMV-firefly luciferase; assay: reporter gene assay to monitor transcriptional effects; type: cell-based; conditions: Homo sapiens; 22Rv1, CMV-firefly luciferase
Method: as §1

[4] = Solubility; type: physicochemical

Row | Structure (SMILES) | IC50 [1] | IC50 [2] | Solubility [4] | Solubility ([4]; read-out: Solubility) | IC50 [3]
1 | O=C(NCCC1CC2C=CC1C2)c1cccc(OC2CCN(C(=O)C3CCCC3)CC2)c1 (stereo not drawn) [Compound I-3] | 3560 µM | 16.7 µM | 25 mM (≈ 10.9 mg/mL) |  | ~24.6 µM
2 | O=C(NCCC1CC2C=CC1C2)c1cccc(OC2CCN(C(=O)C3CCCCC3)CC2)c1 (stereo not drawn) [Compound I-4] | 33400 µM | 24.3 µM | 25 mM (≈ 11.3 mg/mL) |  | ~25.2 µM
3 | O=C(NCCC1CC2C=CC1C2)c1cccc(OC2CCN(C(=O)C3CCC3)CC2)c1 (stereo not drawn) [Compound I-5] |  | 24.6 µM | 25 mM (≈ 10.6 mg/mL) |  | ~25.2 µM
4 | O=C(NCCC1CC2C=CC1C2)c1cccc(OC2CCN(C(=O)c3ccccc3)CC2)c1 (stereo not drawn) [Compound I-6] |  | 8.2 µM | 25 mM (≈ 11.1 mg/mL) |  | ~24.9 µM
5 | O=C(NCCC1CC2C=CC1C2)c1cccc(OC2CCN(C(=O)Cc3ccccc3)CC2)c1 (stereo not drawn) [Compound I-7] |  | 52.4 µM | 25 mM (≈ 11.5 mg/mL) |  | ~25.9 µM
6 | O=C(NCCC1CC2C=CC1C2)c1cccc(OC2CCN(C(=O)C(F)(F)F)CC2)c1 (stereo not drawn) [Compound I-8] |  | 70.5 µM | 25 mM (≈ 10.9 mg/mL) |  | 21.9 µM
7 | O=C(NCC1CC2C=CC1C2)c1cccc(OC2CCN(C(=O)C3CC3)CC2)c1 (stereo not drawn) [Compound I-11] |  |  | 25 mM (≈ 9.86 mg/mL) |  | 28.3 µM
8 | CC(NC(=O)c1cccc(OC2CCN(C(=O)C3CC3)CC2)c1)C12CC3CC(CC(C3)C1)C2 (stereo not drawn) [Compound I-14] |  |  | 25 mM (≈ 11.3 mg/mL) |  | 
9 | O=C(NCC1CC2C=CC1C2)c1cccc(OC2CCN(C(=O)C(F)(F)F)CC2)c1 (stereo not drawn) [Compound I-17] |  | 18.4 µM | 25 mM (≈ 10.6 mg/mL) |  | 5.21 µM
10 | O=C(NCC1CC2C=CC1C2)c1cccc(OC2CCN(C(=O)C3CCC3)CC2)c1 (stereo not drawn) [Compound I-18] |  | 41.2 µM | 25 mM (≈ 10.2 mg/mL) |  | ~24.4 µM
11 | O=C(NCC1CC2C=CC1CC2)c1cccc(OC2CCN(C(=O)C3CC3)CC2)c1 (stereo not drawn) [Compound I-23] |  | 1020 µM | 25 mM (≈ 10.2 mg/mL) |  | ~25.5 µM
12 | CN(Cc1cccc2ncccc12)C(=O)c1cccc(OC2CCN(C(=O)C3CC3)CC2)c1 [Compound I-24] |  | 1650 µM |  | 12.5 mM (≈ 5.54 mg/mL) | 20.4 µM
13 | CCCCC(=O)N1CCC(Oc2cccc(C(=O)NCCC3CC4C=CC3C4)c2)CC1 (stereo not drawn) [Compound I-34] | 55.8 µM | 28.8 µM |  | 12.5 mM (≈ 5.31 mg/mL) | ~27.9 µM
14 | C=CCCC(=O)N1CCC(Oc2cccc(C(=O)NCCC3CC4C=CC3C4)c2)CC1 (stereo not drawn) [Compound I-35] |  | 26.5 µM | 25 mM (≈ 10.6 mg/mL) |  | 31.5 µM
15 | Cc1c(C(=O)N(C)Cc2cccc3ncccc23)sc2ncnc(NCC3C4C=CC(C4)C3CO)c12 (stereo not drawn) [II-3] | 3210 µM | 493 µM | 25 mM (≈ 12.5 mg/mL) |  | 
16 | Cc1c(C(=O)N(C)Cc2cccc3ncccc23)sc2ncnc(NCCC3CCCCC3)c12 [II-4] |  | 10.7 µM | 25 mM (≈ 11.8 mg/mL) |  | 9.63 µM
17 | Cc1c(C(=O)N(C)Cc2cccc3ncccc23)sc2ncnc(NCC3CC4C=CC3CC4)c12 (stereo not drawn) [II-5] | 782 µM | 8.09 µM | 25 mM (≈ 12.1 mg/mL) |  | 2.36 µM
18 | Cc1c(C(=O)N(C)Cc2cccc3ncccc23)sc2ncnc(NCCC3CC4C=CC3C4)c12 (stereo not drawn) [II-6] | 1680 µM | 14.1 µM | 25 mM (≈ 12.1 mg/mL) |  | 8.29 µM

Continued, in another order:

Row | IC50 [1] | IC50 [2] | Solubility [4] | Solubility ([4]; read-out: Solubility) | Structure (SMILES) | IC50 [3]
19 |  | 355 µM | 25 mM (≈ 11.1 mg/mL) |  | O=C(NCCC1CC2C=CC1C2)c1cccc(OC2CCN(C(=O)c3cccnc3)CC2)c1 (stereo not drawn) [Compound I-9] | 
20 |  |  | 25 mM (≈ 10.2 mg/mL) |  | O=C(NCCC1CC2C=CC1C2)c1ccc(OC2CCN(C(=O)C3CC3)CC2)cc1 (stereo not drawn) [Compound I-10] | 
21 |  | 172 µM | 25 mM (≈ 10.9 mg/mL) |  | O=C(NCC12CC3CC(CC(C3)C1)C2)c1cccc(OC2CCN(C(=O)C3CC3)CC2)c1 [Compound I-13] | 
22 |  |  | 25 mM (≈ 7.48 mg/mL) |  | CC(=O)Oc1cccc(C(=O)NCC2CC3C=CC2CC3)c1 (stereo not drawn) [Compound I-19] | 
23 |  |  | 25 mM (≈ 6.43 mg/mL) |  | O=C(NCC1CC2C=CC1CC2)c1cccc(O)c1 (stereo not drawn) [Compound I-20] | 
24 |  | 342 µM | 25 mM (≈ 11.7 mg/mL) |  | CCCC(CCC)C(=O)N1CCC(Oc2cccc(C(=O)NCCC3CC4C=CC3C4)c2)CC1 (stereo not drawn) [Compound I-21] | 
25 |  | 3580 µM |  | 6.25 mM (≈ 3.17 mg/mL) | O=C(NCCC1CC2C=CC1C2)c1cccc(OC2CCN(C(=O)CCc3ccc(Cl)cc3)CC2)c1 (stereo not drawn) [Compound I-22] | 
26 |  | 388 µM | 25 mM (≈ 10.2 mg/mL) |  | O=C(NCC1CC2C=CC1CC2)c1ccc(OC2CCN(C(=O)C3CC3)CC2)cc1 (stereo not drawn) [Compound I-25] | 
27 | 341 µM | 222 µM | 25 mM (≈ 10.2 mg/mL) |  | O=C(NCCCc1ccccc1)c1cccc(OC2CCN(C(=O)C3CC3)CC2)c1 [Compound I-26] | 
28 | 49.9 µM | 28.5 µM |  | 12.5 mM (≈ 5.18 mg/mL) | O=C(Nc1ccc2ccccc2c1)c1cccc(OC2CCN(C(=O)C3CC3)CC2)c1 [Compound I-27] | 
29 | 176 µM | 698 µM | 25 mM (≈ 9.97 mg/mL) |  | O=C(Nc1ccc(Cl)cc1)c1cccc(OC2CCN(C(=O)C3CC3)CC2)c1 [Compound I-28] | 
30 |  | 25.1 µM | 25 mM (≈ 10.2 mg/mL) |  | CC(C)c1ccc(NC(=O)c2cccc(OC3CCN(C(=O)C4CC4)CC3)c2)cc1 [Compound I-29] | 
31 |  | 136 µM | 25 mM (≈ 9.11 mg/mL) |  | O=C(Nc1ccccc1)c1cccc(OC2CCN(C(=O)C3CC3)CC2)c1 [Compound I-30] | 
32 | 166 µM | 62.6 µM | 25 mM (≈ 9.46 mg/mL) |  | O=C(NCc1ccccc1)c1cccc(OC2CCN(C(=O)C3CC3)CC2)c1 [Compound I-31] | 
33 | 101 µM | 79.2 µM | 25 mM (≈ 9.96 mg/mL) |  | O=C(NCCC1CCCCC1)c1cccc(OC2CCN(C(=O)C3CC3)CC2)c1 [Compound I-32] | 
34 | 80.5 µM |  | 25 mM (≈ 11 mg/mL) |  | CC(=O)CCC(=O)N1CCC(Oc2cccc(C(=O)NCCC3CC4C=CC3C4)c2)CC1 (stereo not drawn) [Compound I-36] | 
35 | 1150 µM |  | 25 mM (≈ 10.6 mg/mL) |  | O=C(NCC1C2C=CC(C2)C1CO)c1ccc(OC2CCN(C(=O)C3CC3)CC2)cc1 (stereo not drawn) [Compound I-37] | 
36 | 1890 µM |  |  | 12.5 mM (≈ 5.83 mg/mL) | CCOC(=O)C1C2C=CC(C2)C1CNC(=O)c1ccc(OC2CCN(C(=O)C3CC3)CC2)cc1 (stereo not drawn) [Compound I-38] | 
37 | 93.9 µM | 397 µM | 25 mM (≈ 10.9 mg/mL) |  | O=C(NCC1CC2C=CC1CC2)c1cccc(OC2CCN(C(=O)C(F)(F)F)CC2)c1 (stereo not drawn) [Compound I-39] | 
38 | 90.3 µM | 120 µM | 25 mM (≈ 11.1 mg/mL) |  | O=C(NCC1CC2C=CC1CC2)c1cccc(OC2CCN(C(=O)c3cccnc3)CC2)c1 (stereo not drawn) [Compound I-40] | 
39 |  | 68.2 µM | 25 mM (≈ 11 mg/mL) |  | Cc1c(C(=O)Nc2ccc3ccccc3c2)sc2ncnc(NCC3CC4C=CC3C4)c12 (stereo not drawn) [II-7] | 

Source: US10961216B2, “Small molecule modulators of the androgen receptor” (Massachusetts Institute of Technology, priority 2017, dated 2021)
